In data set [1] the test system is HeLa cells. As to the kind of experiment: Flow cytometry of total TAMRA-R8 uptake. Conditions: for mean_of_medians: Extended Data Fig.5a, mean of n = 3. The class given is cell-based. On the procedure: HeLa cells were seeded at 10,000 cells per well in 96-well plates. The next day, they were incubated for 1 h with the indicated compounds diluted in HKR. Cells were subsequently washed for 5 min with HKR containing 0.1 mg ml^−1 heparin, washed again with HKR and trypsinized. Trypsin was neutralized with PBS containing 2% FBS and 5 mM EDTA. TAMRA fluorescence was excited with a green laser (532 nm) and measured on a Guava easyCyte BG HT collecting the emission at 620/52 nm (Orange-G channel) and using InCyte v.3.2 (GuavaSoft, Millipore). Data were analysed with R (v.4.0.3)[54] and the packages CytoExploreR (v.1.0.8)[56] and ggcyto (v.1.18.0)[57] Cells with typical FSC and SSC parameters were selected and the median fluorescence intensity calculated for each sample. Each condition was measured in triplicate.
Cells were incubated with 1 µM peptide, in the absence or presence of 10 µM cluster for 1 h. […] After medium removal and solubilization with DMSO, the absorbance at 570 nm was measured. Values were normalized to the untreated cell control (100%). Data are mean ± s.d. of three replicates. Source data

Data set [2] relates to HeLa cells. In words: Cytosolic TAMRA-R8 concentration (digitonin fractionation, fluorescence). It is filed as cell-based. The settings on record: Extended Data Fig.5d; for concentration_uM, mean: mean of 4 experiments. On the procedure:
Cytosolic extracts were obtained according to a previously described protocol[55] by incubation with digitonin, a steroidal saponin that preferentially permeabilizes cholesterol-rich membranes, such as the plasma membrane, with minor effects on intracellular membranes. […] Cells were incubated on ice with 600 µl of 35 µg ml^−1 digitonin in PBS Ca/Mg for 10 min, the supernatant with the cytosolic fraction collected and cells washed with 200 µl of PBS Ca/Mg, combining this supernatant with the previous extract. The non-cytosolic fraction was collected by incubation of the cells with 800 µl of 1% Triton X-100 in PBS. […] For the complementary HPLC analysis, phosphate buffer was replaced by TBS (20 mM Tris–HCl, pH 7.2, 150 mM NaCl, 0.5 mM CaCl2, 0.5 mM MgCl2) and digitonin extraction was performed as indicated above. An aliquot of these extracts was used for β-hexosaminidase activity determination. Cytosolic extracts were lyophilized and resuspended in 1:10 volumes of H2O:CH3CN 1:1 with 1% TFA, and analysed by HPLC (RP-HPLC Agilent Luna 5U C18 100 Å, H2O (0.1% TFA)/CH3CN (0.1% TFA) 100:0 (0→5 min); 100:0→5:95 (5→20 min)) by monitoring the 555-nm absorbance of the TAMRA chromophore.
The quality of fractionation was assessed by lysosomal β-hexosaminidase activity, using 4-nitrophenyl 2-acetamido-2-deoxy-β-D-glucopyranoside as substrate. Briefly, 20 µl of extract was incubated with 80 µl of 7.5 mM substrate in 100 mM citrate buffer, pH 4.7, for 40 min at 37 °C, and the reaction was stopped by addition of 200 µl of 0.2 M Tris solution. Absorbance at 405 nm was measured in a plate reader. As blank, wells containing only the substrate were used. […]

A short description of data set [3]: U-tube transport experiment across a bulk chloroform layer. The settings on record: trans: 2 mM HPTS, pH 7.4. The source says:
U-tube transport experiments, across a bulk chloroform layer, unambiguously confirmed that the brominated cluster served as a non-covalent carrier across a hydrophobic bulk barrier (Extended Data Fig. 2a, b). To quantitatively characterize the transport efficiency of the new cluster carriers, the normalized fluorescence responses in the vesicle experiments (Fig. 2b) were plotted against cluster concentration to produce dose–response curves (Fig. 2c and Extended Data Fig. 3a). […] This activity rivals the pyrenebutyrate (1) gold standard in the field (Ea ≈ 5)[18], which we used throughout as a control.
The U-tubes were home-made, similarly to those of Rebek and co-workers[52] and Matile and co-workers[19], and consisted of a small beaker with a central glass barrier separating the two aqueous phases, namely cis ([…]) and trans (receiving phase), but enabling the placement of an interfacing chloroform layer below the cis and trans phases. A 3 ml portion of CHCl3 was located in the U-tube and 1 ml of the cis and trans phases were added. The organic phase was stirred at 700 r.p.m. at room temperature. Aliquots (20 μl) from the aqueous trans phase were taken at different times, diluted to 450 μl with buffer (10 mM Tris, 107 mM NaCl, pH 7.4) and measured by fluorescence. […]

Regarding B12Br12^2−, the mean_of_medians with HeLa cells [1] (10 uM cluster, Tm-R8 0 uM) is recorded as 56.9232; in the data set with HeLa cells [1] (10 uM cluster, Tm-R8 1 uM), 648.983; in the data set with HeLa cells [1] (50 uM cluster, Tm-R8 0 uM), 50.2824; in the data set with HeLa cells [1] (50 uM cluster, Tm-R8 1 uM), 905.363. Moreover, the “Enhancement of total TAMRA-R8 uptake (flow cytometry)” value with HeLa cells [1] (HeLa, 1 µM TAMRA-R8, 10 or 50 µM cluster, 1 h) was “most active carrier”. The concentration_uM was 286.3 nM in the data set on HeLa cells [2] (0 uM B12Br12 (no carrier), experiment 1); 345 nM with HeLa cells [2] (0 uM B12Br12 (no carrier), experiment 2); 274.3 nM with HeLa cells [2] (0 uM B12Br12 (no carrier), experiment 3); 342.3 nM with HeLa cells [2] (0 uM B12Br12 (no carrier), experiment 4); 1393 nM with HeLa cells [2] (10 uM B12Br12, experiment 1); 1647 nM in the data set on HeLa cells [2] (10 uM B12Br12, experiment 2). The concentration_uM with HeLa cells [2] (10 uM B12Br12, experiment 3) amounted to 1247 nM; in the data set with HeLa cells [2] (10 uM B12Br12, experiment 4), 1117 nM. The figures for the “concentration_uM, mean” value in the data set on HeLa cells [2] (0 uM B12Br12 (no carrier)) and in the data set with HeLa cells [2] (10 uM B12Br12) were 312 nM and 1351 nM, respectively. In addition, the “Transport of DPX across chloroform, without peptide cargo” value in data set [3] (cis: 40 μM cluster and 20 mM DPX) was “faster and more efficient transport of DPX”. Also, in data set [3] (cis: 40 μM cluster, 20 μM WR7, 20 mM DPX, 10 mM Tris, 107 mM NaCl, HPTS quenching), the “Transport of DPX across chloroform, with peptide cargo” value was “the fastest and most efficient transport of DPX”.

These data come from PMC8942850, “Boron clusters as broadband membrane carriers” (Nature, 2022).
